Measured values as given in patent publication US9701628B2, “12-epi pleuromutilins” (NABRIVA THERAPEUTICS AG, priority 2014, dated 2017).
Converted amounts (≈) assume the structure as drawn. Structures can show the parent of a compound that is named as a salt. Where two headings read alike, the source gives them in different places.

Columns and labels:
[1] = test system: Staphylococcus aureus ATCC 49951; assay: MIC by broth microdilution (CLSI) against Staphylococcus aureus ATCC 49951; assay type: cell-based
Procedure: (§1) The in vitro activity against aerobic bacteria was determined by Broth Microdilution Test according to the Clinical and Laboratory Standards Institute (CLSI, former NCCLS) Document M7-A9 Vol 32, No 2 “Methods for Dilution Antimicrobial Susceptibility Tests for Bacteria that Grow Aerobically; Approved Standard—Ninth Edition (2012)”; and the test against anaerobic bacteria was performed by Agar Dilution Test according to the Clinical and Laboratory Standards Institute (CLSI, former NCCLS), Document, M11-A8, Vol. 32, No. 5: “Methods for Antimicrobial Susceptibility Testing of Anaerobic Bacteria; Approved Standard—Eighth Edition (2012)”. Performance standards and interpretive criteria followed the CLSI Document, M100-S23: “Performance Standards for Antimicrobial Susceptibility Testing; Twenty-Third Informational Supplement” (2013). The in vivo activity was tested by the septicaemia mouse model against Staphylococcus aureus and Escherichia coli.
(§2) The antibacterial activity expressed as minimal inhibitory concentration (MIC) was determined according to the approved standard reference recommendations of CLSI (former NCCLS) as described in the description of the application.

[2] = test system: Escherichia coli ATCC25922; assay: MIC by broth microdilution (CLSI) against Escherichia coli ATCC 25922; assay type: cell-based
Procedure: as §1, §2

[3] = Staphylococcus aureus ATCC 49951, in vitro
[4] = Escherichia coli ATCC25922, in vitro
[5] = ATCC49951, Staphylococcus aureus ATCC 49951, in vitro, read-out: MIC
[6] = Escherichia coli ATCC25922, in vitro, read-out: MIC

Row | SMILES | MIC [1, 3] | MIC [2, 4] [mg/L] | MIC [1, 5] [mg/L] | MIC [2, 6] [mg/L] | further results
1 | C[C@@H]1CC[C@@]23CCC(=O)[C@H]2[C@]1(C)[C@H](OC(=O)CSc1ccc(CN)cn1)C[C@](C)(CNCc1ccc(CN)cc1)[C@@H](O)[C@@H]3C [Example 98, 12-epi-12-desvinyl-14-O-{[5-Aminomethyl-pyridin-2-yl-sulfanyl)]-acetyl}-12-[(4-aminomethyl-benzylamino)-methyl] mutilin tetrahydrochloride] |  |  | 0.125 | 0.5 | 
2 | CC1C(O)C(C)(CNCc2cc(F)c(CN)cc2F)CC(OC(=O)CSc2ccc(CN)cn2)C2(C)C(C)CCC13CCC(=O)C32.Cl.Cl.Cl.Cl (stereo not drawn) [Example 103, 12-epi-12-desvinyl-14-O-{[5-Aminomethyl-pyridin-2-yl-sulfanyl]-acetyl}-12-[(4-aminomethyl-2,5-difluoro-benzylamino)-methyl] mutilin tetrahydrochloride] | 0.5 mg/L | 4 |  |  | 
3 | C[C@@H]1CC[C@@]23CCC(=O)[C@H]2[C@]1(C)[C@H](OC(=O)CSC1CCCNCC1)C[C@](C)(CNCCCCCCN)[C@@H](O)[C@@H]3C (stereo partly drawn) [Example 130, 12-epi-12-desvinyl-14-O-[(Azepan-4-ylsulfanyl)-acetyl]-12-[(6-amino-hexylamino)-methyl] mutilin trihydrochloride] |  |  | ≤ 0.03 | 0.5 | 
4 | CC1C(O)C(C)(CNCCCCCCNC(=N)N)CC(OC(=O)CSC2CCCNCC2)C2(C)C(C)CCC13CCC(=O)C32.Cl.Cl.Cl (stereo not drawn) [Example 131, 12-epi-12-desvinyl-14-O-[(Azepan-4-ylsulfanyl)-acetyl]-12-[(6-guanidino-hexylamino)-methyl] mutilin trihydrochloride] | 0.06 mg/L | 0.125 |  |  | 
5 | C[C@@H]1CC[C@@]23CCC(=O)[C@H]2[C@]1(C)[C@H](OC(=O)CSC1CCCNCC1)C[C@](C)(CCNc1ccc(CN)cc1)[C@@H](O)[C@@H]3C (stereo partly drawn) [Example 143, 12-epi-12-desvinyl-14-O-[(Azepan-4-ylsulfanyl)-acetyl]-12-[(4-aminomethyl-phenylamino)-ethyl] mutilin trihydrochloride] |  |  | 0.125 | 4 | 
6 | CC1C(O)C(C)(C=Cc2ccc(CNCCN)c(F)c2)CC(OC(=O)CSC2CCCNCC2)C2(C)C(C)CCC13CCC(=O)C32.Cl.Cl.Cl (stereo not drawn) [Example 157, 12-epi-12-desvinyl-14-O-[(Azepan-4-ylsulfanyl)-acetyl]-12-((E)-2-{4-[(2-amino-ethylamino)-methyl]-3-fluoro-phenyl}-ethenyl) mutilin trihydrochlorid] | 0.25 mg/L | 4 |  |  | 
7 | C=C[C@@]1(C)C[C@@H](OC(=O)CSc2nnc(N)[nH]2)[C@]2(C)[C@H](C)CC[C@]3(CCC(=O)[C@H]32)[C@@H](C)[C@@H]1O.Cl [Example C1, 12-epi-14-O-{[(5-Amino-4H-1,2,4-triazol-3-yl)-sulfanyl]-acetyl} mutilin hydrochloride, reference compound] | 0.5 mg/L | 128 |  |  | 
8 | C=CC1(C)CC(OC(=O)CSc2ccc(CC(=O)NCC(C)N)cc2)C2(C)C(C)CCC3(CCC(=O)C32)C(C)C1O.Cl (centres unmarked) [Example C2, 14-O-{{4-[(2-Amino-propylcarbamoyl)-methyl]-phenylsulfanyl}-acetyl} mutilin hydrochloride, reference compound] | ≦0.03 μg/mL | 32 |  |  | 
9 | CC1C(O)C(C)(CNCCCN)CC(OC(=O)CSC2CCC(N)CC2O)C2(C)C(C)CCC13CCC(=O)C32.Cl.Cl.Cl [Example C3, 14-O-{[(1R,2R,4R)-4-Amino-2-hydroxy-cyclohexylsulfanyl]-acetyl}-12-desvinyl-12-[(3-amino-propylamino)-methyl] mutilin trihydrochlorid, reference compound] | 16 mg/L | >32 |  |  | 
10 | C=C[C@]1(C)C[C@@H](OC(=O)CS[C@@H]2C[C@H]3CC[C@@H](C2)N3C)[C@]2(C)[C@H](C)CC[C@]3(CCC(=O)[C@H]32)[C@@H](C)[C@@H]1O [Retapamulin, retapamulin, reference compound] |  |  |  |  | MIC ([1]; Staphylococcus aureus, ATCC49951): ≤ 0.03 mg/L; MIC ([2]; Escherichia coli, ATCC25922): 32 mg/L (≈ 61.8 µM)
11 | C=C[C@]1(C)C[C@@H](OC(=O)CSCCN(CC)CC)[C@]2(C)[C@H](C)CC[C@]3(CCC(=O)[C@H]32)[C@@H](C)[C@@H]1O [Tiamulin, tiamulin, reference compound] |  |  | 0.5 (≈ 1.01 µM) | > 32 | 

Further lines, with some results ahead:

Row | MIC [1, 3] | MIC [2, 4] [mg/L] | MIC [1, 5] [mg/L] | MIC [2, 6] [mg/L] | SMILES | further results
12 | 0.06 mg/L | 0.5 |  |  | C[C@@H]1CC[C@@]23CCC(=O)[C@H]2[C@]1(C)[C@H](OC(=O)CSc1cccc(CN)c1)C[C@](C)(CNCCCN)[C@@H](O)[C@@H]3C.Cl.Cl.Cl [Example 86, 12-epi-12-desvinyl-14-O-[(3-Aminomethyl-phenylsulfanyl)-acetyl]-12-[(3-amino-propylamino)-methyl] mutilin trihydrochloride] | 
13 |  |  | 0.25 | 0.5 | C[C@@H]1CC[C@@]23CCC(=O)[C@H]2[C@]1(C)[C@H](OC(=O)CSc1ccc(CN)cn1)C[C@](C)(CNCc1ccc(CN)c(F)c1)[C@@H](O)[C@@H]3C [Example 99, 12-epi-12-Desvinyl-14-O-{[5-aminomethyl-pyridin-2-yl-sulfanyl)]-acetyl}-12-[(4-aminomethyl-3-fluoro-benzylamino)-methyl] mutilin tetrahydrochloride] | 
14 | ≦0.03 μg/mL | 0.25 |  |  | CC1C(O)C(C)(CNCCCN)CC(OC(=O)CSc2ccc(CNCc3ccc(CN)cc3)cc2)C2(C)C(C)CCC13CCC(=O)C32.Cl.Cl.Cl.Cl (stereo not drawn) [Example 115, 12-epi-12-desvinyl-14-O-{{4-[(4-Aminomethyl-benzylamino)-methyl]-phenylsulfanyl}-acetyl}-12-[(3-amino-propylamino)-methyl] mutilin tetrahydrochloride] | 
15 |  |  | ≤ 0.03 | 8 | C[C@@H]1CC[C@@]23CCC(=O)[C@H]2[C@]1(C)[C@H](OC(=O)CSC1CCN(C(=O)CN)CC1)C[C@](C)(CCCCCCCCN)[C@@H](O)[C@@H]3C [Example 146, 12-epi-12-desvinyl-14-O-{[1-(2-Amino-acetyl)-piperidin-4-yl-sulfanyl]-acetyl}-2-(8-amino-octyl) mutilin dihydrochloride] | 
16 |  |  | 0.25 | 4 | C[C@@H]1CC[C@@]23CCC(=O)C2[C@]1(C)[C@H](OC(=O)CSC1CCC(CNC(=O)CN)CC1)C[C@](C)(CCc1ccc(CNCCN)cc1)[C@@H](O)[C@@H]3C (stereo partly drawn) [Example 152, 12-epi-12-desvinyl-14-O-{{4-[(2-Amino-acetylamino)-methyl]-cyclohexylsulfanyl}-acetyl}-12-[2-{4-[(2-amino-ethylamino)-methyl]-phenyl}-ethyl) mutilin trihydrochloride] | 
